Assay results taken from publication PMC3818959 (Journal of Ginseng Research, 2013).

Target: KCNQ1 (IKs channel, KCNQ1 + KCNE1) (Homo sapiens, UniProt P51787)
Assay: cell-based

Chain of KCNQ1 (IKs channel, KCNQ1 + KCNE1) (P51787 whole entry): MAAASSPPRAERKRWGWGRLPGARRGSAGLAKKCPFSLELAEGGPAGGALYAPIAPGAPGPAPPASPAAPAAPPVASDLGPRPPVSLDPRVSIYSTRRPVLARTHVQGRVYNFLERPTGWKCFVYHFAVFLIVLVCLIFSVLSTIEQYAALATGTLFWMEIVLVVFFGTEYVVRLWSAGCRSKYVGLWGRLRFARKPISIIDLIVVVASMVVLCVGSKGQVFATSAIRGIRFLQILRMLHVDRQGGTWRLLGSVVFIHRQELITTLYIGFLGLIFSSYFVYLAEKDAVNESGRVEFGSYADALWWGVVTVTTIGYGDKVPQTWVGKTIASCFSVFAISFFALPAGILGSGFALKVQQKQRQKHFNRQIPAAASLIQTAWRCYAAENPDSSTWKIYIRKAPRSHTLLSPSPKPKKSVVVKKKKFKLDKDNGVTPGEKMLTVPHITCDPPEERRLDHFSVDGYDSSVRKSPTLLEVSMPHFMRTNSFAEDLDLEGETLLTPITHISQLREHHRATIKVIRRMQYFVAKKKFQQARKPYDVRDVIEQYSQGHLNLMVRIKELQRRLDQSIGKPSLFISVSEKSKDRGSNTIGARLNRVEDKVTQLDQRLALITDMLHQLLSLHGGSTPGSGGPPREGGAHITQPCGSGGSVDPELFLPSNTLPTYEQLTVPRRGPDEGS

CC(C)=CCC[C@](C)(O)[C@H]1CC[C@]2(C)[C@@H]1[C@H](O)C[C@@H]1[C@@]3(C)CC[C@H](O)C(C)(C)[C@@H]3[C@@H](O)C[C@]12C [PPT, protopanaxatriol]
IC50: 5.18 ± 0.13 µM
